Source: patent US9492485B2, “Pluripotent stem cell-derived brown adipocytes, pluripotent stem cell-derived cell aggregate, method for producing same, and cell therapy and medical therapy therefor” (ID Pharma Co., Ltd., priority 2011, dated 2016)

How the values were obtained:
[1] = system: 10-week old mice (male, ICR strain); experiment: Relief of 5-fluorouracil-induced myelosuppression in mice, bone marrow cell count; type: in vivo, mouse; settings: 5-FU 100 mg/kg; isoproterenol 30 μmol/kg on 3 to 6 days after; vs saline; P=0.032 (FIG. 16F)
Experimental: Furthermore, whether or not a brown adipocyte stimulant has an effect of relieving a severe side effect of anticancer drug administration, myelosuppression, was investigated. Specifically, an anticancer drug, 5-fluorouracil (5-FU), was administered to 10-week old mice (male, ICR strain) at a dose of 100 mg/kg. Isoproterenol (30 μmol/kg) or saline was administered to the mice on 3 to 6 days after the administration, and bone marrow cells were collected from the thighbone over time and were counted.

[2] = system: human ES cell-derived brown adipocytes; experiment: Influence of brown adipocyte stimulant on hematopoietic cytokine expression levels; type: cell-based; settings: treatment with isoproterenol (FIG. 16E)
[3] = system: brown adipocytes produced from KhES-3 cell line and SeV-iPS cell line; experiment: RT-PCR of PRDM16 and UCP1 gene expression after addition of adrenaline receptor agonist; type: cell-based, human; settings: 100 μM, 4 hours, RT-PCR (FIG. 10)
Experimental: Brown adipocytes were produced from KhES-3 cell line and SeV-iPS cell line in accordance with the method described in Example 5 and were reacted with 100 μM of an adrenaline receptor agonist, isoproterenol, for 4 hours. In order to evaluate the activation of the brown adipocytes by the addition of the adrenaline receptor agonist, the expressions of the PRDM16 and UCP1 genes were investigated by RT-PCR.

[4] = system: undifferentiated human iPS cells; experiment: Oxygen consumption (OCR) with XF96 Extracellular Flux Analyzer; type: cell-based; settings: CL316,243 100 nM or isoproterenol 100 μM, 4 hours (FIG. 12B left)
[5] = system: white adipocytes produced from human mesenchymal stem cells (MSCs); experiment: as above; type: cell-based; settings: CL316,243 100 nM or isoproterenol 100 μM, 4 hours (FIG. 12C)
[6] = system: undifferentiated human ES cells; experiment: as above; type: cell-based; settings: CL316,243 100 nM or isoproterenol 100 μM, 4 hours (FIG. 12A left)
[7] = system: brown adipocytes derived from human iPS cells; experiment: as above; type: cell-based; settings: CL316,243 100 nM or isoproterenol 100 μM, 4 hours (FIG. 12B right)
Experimental: (§1) Brown adipocytes were differentiated from KhES-3 and SeV-iPS cell lines in accordance with the method described in Example 5. Here, the adhesion culture in the step (B) for differentiation induction was carried out using a 96-well plate for exclusive use in XF96 Extracellular Flux Analyzer (Seahorse Bioscience Inc., Billerica, Mass.) after coating with 0.1% gelatin. The cell aggregates were seeded at an amount of 30 cell aggregates per well. The cell aggregates seeded in the 96-well plate were incubated in a 5% CO2 incubator at 37° C. for 2 days. Subsequently, isoproterenol (100 μM) or CL316,243 (100 nM) was added to a half of the wells, and incubation was further carried out in a 5% CO2 incubator at 37° C. for 4 hours, followed by measurement of oxygen consumption (OCR) per minute with XF96 Extracellular Flux Analyzer (Seahorse Bioscience Inc., Billerica, Mass.).

[8] = system: brown adipocytes derived from human ES cells; experiment: as above; type: cell-based; settings: CL316,243 100 nM or isoproterenol 100 μM, 4 hours (FIG. 12A right)
Experimental: as §1

SMILES	number of bone marrow cells on the 7th day from the 5-FU administration [1]	expression levels of cytokines (TPO, IL6, IL3, G-CSF, GM-CSF, EPO) [2]	expression of the PRDM16 gene [3]	expression of the UCP1 gene [3]	OCR value [4]	OCR value [5]	OCR value [6]	OCR value [7]	OCR value [8]
CC(C)NCC(O)c1ccc(O)c(O)c1 (stereo not drawn) [isoproterenol]	significantly increased	increased	increase	increase					
C[C@H](Cc1ccc2c(c1)OC(C(=O)[O-])(C(=O)[O-])O2)NC[C@H](O)c1cccc(Cl)c1.[Na+].[Na+] [CL316,243]					no change	no change	no change	significant increase	significant increase
